We go through 1 molecule from ChEMBL document CHEMBL5338715, “Identification of (S)-1-(2-(2,4-difluorophenyl)-4-oxothiazolidin-3-yl)-3-(4-((7-(3-(4-ethylpiperazin-1-yl)propoxy)-6-methoxyquinolin-4-yl)oxy)-3,5-difluorophenyl)urea as a potential anti-colorectal cancer agent” (Eur J Med Chem, 2022).

Activity calls are given as the source filed them. The calls are words filed in the database; no cut-off is given here.

The test system of data set [1] is COLO 205. The experiment in a line: Induction of apoptosis in human COLO 205 cells assessed as early apoptotic cells at […] incubated for 72 hrs by Annexin FITC-A staining based flow cytometry (reference value: 2.54 %). The data set is classed as functional. Particulars: dose 0.11 µM. In general terms: In flow cytometry, cells or beads pass a laser one at a time.

Data set [2] has as its system COLO 205. Kind of data set: Induction of apoptosis in human COLO 205 cells assessed as early apoptotic cells at 1 uM incubated for 72 hrs by Annexin FITC-A staining based flow cytometry (reference value: 2.54 %). The data set is classed as functional.
Data set [3] has as its system COLO 205. The experiment in a line: Induction of apoptosis in human COLO 205 cells assessed as viable cells at […] incubated for 72 hrs by Annexin FITC-A staining based flow cytometry (reference value: 78.7 %). The data set is classed as functional. Particulars: dose 0.11 µM, read-out: Activity.
In data set [4] the test system is COLO 205. The experiment in a line: Induction of apoptosis in human COLO 205 cells assessed as viable cells at 0.037 uM incubated for 72 hrs by Annexin FITC-A staining based flow cytometry (reference value: 78.7 %). The data set is classed as functional. Conditions: read-out: Activity.
Data set [5] concerns COLO 205. The experiment in a line: Induction of apoptosis in human COLO 205 cells assessed as early apoptotic cells at 0.037 uM incubated for 72 hrs by Annexin FITC-A staining based flow cytometry (reference value: 2.54 %). The data set is classed as functional.
The subject of data set [6] is COLO 205. Kind of data set: Induction of apoptosis in human COLO 205 cells assessed as necrotic cells at 0.037 uM incubated for 72 hrs by Annexin FITC-A staining based flow cytometry (reference value: 9.65 %). It is filed as functional.
Data set [7] relates to COLO 205. Kind of data set: Induction of cell cycle arrest in human COLO 205 cells assessed as accumulation at G1 phase at 0.037 uM incubated for 24 hrs by flow cytometry (reference value: 47.9 %). It is filed as functional.
Data set [8] concerns COLO 205. Kind of data set: Induction of apoptosis in human COLO 205 cells assessed as necrotic cells at 1 uM incubated for 72 hrs by Annexin FITC-A staining based flow cytometry (reference value: 9.65 %). The data set is classed as functional.
The nature of data set [9]: Cytotoxicity against human FHC cells assessed as cell growth inhibition by MTT assay. The data set is classed as toxicity, cell-based. (In general: Formazan colour is commonly taken as a measure of viable cells.)
Data set [10] concerns COLO 205. Kind of data set: cells. Conditions: Homo sapiens.
Data set [11] deals with COLO 205. Kind of data set: Induction of apoptosis in human COLO 205 cells assessed as early apoptotic cells at 0.33 uM incubated for 72 hrs by Annexin FITC-A staining based flow cytometry (reference value: 2.54 %). The data set is classed as functional.
In data set [12] the test system is COLO 205. The experiment in a line: Induction of cell cycle arrest in human COLO 205 cells assessed as accumulation at S phase at 0.037 uM incubated for 24 hrs by flow cytometry (reference value: 40.8 %). It is filed as functional.
Data set [13] concerns COLO 205. The experiment in a line: Induction of apoptosis in human COLO 205 cells assessed as late apoptotic cells at […] incubated for 72 hrs by Annexin FITC-A staining based flow cytometry (reference value: 9.15 %). It is filed as functional. Conditions: dose 0.11 µM.
The nature of data set [14]: Metabolic stability in human liver microsomes assessed as half life at 1 uM measured upto 45 mins in presence of NADPH by LC-MS/MS analysis. The data set is classed as ADME, Microsome. Background: Liver microsomes are vesicles of endoplasmic reticulum, rich in cytochrome P450 enzymes.
Data set [15] deals with COLO 205. Kind of data set: Induction of cell cycle arrest in human COLO 205 cells assessed as accumulation at G2 phase at 0.037 uM incubated for 24 hrs by flow cytometry (reference value: 6.8 %). It is filed as functional.
Data set [16] relates to COLO 205. Kind of data set: Induction of apoptosis in human COLO 205 cells assessed as necrotic cells at […] incubated for 72 hrs by Annexin FITC-A staining based flow cytometry (reference value: 9.65 %). It is filed as functional. Particulars: dose 0.11 µM.
The subject of data set [17] is COLO 205. Kind of data set: Induction of apoptosis in human COLO 205 cells assessed as necrotic cells at 0.33 uM incubated for 72 hrs by Annexin FITC-A staining based flow cytometry (reference value: 9.65 %). It is filed as functional.
The test system of data set [18] is COLO 205. The experiment in a line: Induction of apoptosis in human COLO 205 cells assessed as late apoptotic cells at 1 uM incubated for 72 hrs by Annexin FITC-A staining based flow cytometry (reference value: 9.15 %). It is filed as functional.
The test system of data set [19] is COLO 205. The experiment in a line: Induction of cell death in human COLO 205 cells at 0.11 to 1 uM incubated for 24 hrs by flow cytometry. Conditions: dose 0.11-1 µM. It is filed as functional, cell-based.
Data set [20] concerns COLO 205. The experiment in a line: Induction of apoptosis in human COLO 205 cells assessed as late apoptotic cells at 0.037 uM incubated for 72 hrs by Annexin FITC-A staining based flow cytometry (reference value: 9.15 %). The data set is classed as functional.
Data set [21] relates to COLO 205. The experiment in a line: Induction of apoptosis in human COLO 205 cells assessed as viable cells at 0.33 uM incubated for 72 hrs by Annexin FITC-A staining based flow cytometry (reference value: 78.7 %). It is filed as functional. Particulars: read-out: Activity.
In data set [22] the test system is COLO 205. Kind of data set: Induction of apoptosis in human COLO 205 cells assessed as late apoptotic cells at 0.33 uM incubated for 72 hrs by Annexin FITC-A staining based flow cytometry (reference value: 9.15 %). The data set is classed as functional.
Data set [23] deals with COLO 205. The experiment in a line: Induction of apoptosis in human COLO 205 cells assessed as viable cells at 1 uM incubated for 72 hrs by Annexin FITC-A staining based flow cytometry (reference value: 78.7 %). Conditions: read-out: Activity. The data set is classed as functional.

As usually defined, the IC50 is the concentration that inhibits the measured activity by half. One may read the half-life as how long it takes for the measured level to halve. Regarding `CCN1CCN(CCCOc2cc3nccc(Oc4c(F)cc(NC(=O)NN5C(=O)CS[C@H]5c5ccc(F)cc5F)cc4F)c3cc2OC)CC1`, the Activity in data set [1] is 6.29%; in [2], 7.41%; in data set [5], 6.59%; in [6], 5.23%; in data set [7], 51.4%; in data set [8], 13.9%. Further, the Activity in data set [11] is 5.19%; in data set [12] it was 38.3%; in data set [13] it was 47.9%; in data set [15], 6.2%; in data set [16], 22.7%; in data set [17], 25%. Moreover, the Activity in data set [18] was 64.7%; in data set [20] it was 24.8%; in data set [22], 54.4%. The viability at […] in data set [3] was 23.1%. Further, the viability at 0.037 µM in data set [4] amounted to 63.4%. Besides, the figures for the half-maximal inhibitory concentration (IC50) in data set [9] and in [10] were over 10000 nM and 42 nM, respectively. For the same molecule, the half-life at 1 µM in data set [14] amounted to 2.83 h. Moreover, the outcome in data set [19] was Active. Further, the viability at 0.33 µM in [21] was determined as 15.4%. Besides, in [23], the viability at 1 µM was found to be 14%.
